ChEMBL document CHEMBL2074516, “cDNA structure, genomic organization, and promoter analysis of the mouse intestinal peptide transporter PEPT1” (Biochim Biophys Acta, 2000)
Where a SMILES comes first, the peptide text is derived from it. [ ]: non-standard residue; d: D form. Sar = CNCC(=O)O

How the values were obtained:
[1] = target: T1, Solute carrier family 15 member 1 (Mus musculus) (UniProt Q9JIP7); assay: TP_TRANSPORTER: uptake in PEPT1-expressing HRPE cells; format: functional, cell-based
T1 sequence (whole entry): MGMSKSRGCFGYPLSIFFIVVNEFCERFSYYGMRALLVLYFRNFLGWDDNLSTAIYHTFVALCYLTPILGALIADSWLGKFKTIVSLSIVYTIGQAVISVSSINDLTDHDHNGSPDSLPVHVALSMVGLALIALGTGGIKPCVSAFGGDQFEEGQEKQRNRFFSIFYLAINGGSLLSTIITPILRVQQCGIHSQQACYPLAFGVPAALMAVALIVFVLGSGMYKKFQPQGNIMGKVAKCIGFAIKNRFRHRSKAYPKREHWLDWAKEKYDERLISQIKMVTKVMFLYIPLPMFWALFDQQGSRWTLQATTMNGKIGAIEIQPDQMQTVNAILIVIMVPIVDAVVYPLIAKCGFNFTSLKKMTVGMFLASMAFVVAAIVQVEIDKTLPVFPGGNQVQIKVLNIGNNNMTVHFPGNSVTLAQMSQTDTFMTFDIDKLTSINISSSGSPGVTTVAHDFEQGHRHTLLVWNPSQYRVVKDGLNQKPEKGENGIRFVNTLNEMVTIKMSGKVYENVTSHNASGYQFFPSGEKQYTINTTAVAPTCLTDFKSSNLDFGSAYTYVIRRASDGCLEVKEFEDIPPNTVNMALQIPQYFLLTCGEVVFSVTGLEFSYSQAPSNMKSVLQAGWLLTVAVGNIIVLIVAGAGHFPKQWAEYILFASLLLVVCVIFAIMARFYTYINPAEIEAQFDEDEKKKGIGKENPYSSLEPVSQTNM

[2] = target: T1, Solute carrier family 15 member 1 (Mus musculus); assay: TP_TRANSPORTER: uptake in Xenopus laevis oocytes; format: functional, cell-based; conditions: Oocyte

## CN(CC(=O)O)C(=O)CN (H-Gly-[Sar]-OH)
[1]
  Activity: substrate [+]
[2]
  Activity: substrate [+]
